The values that follow come from patent publication US20230234942A1, “COMPOUNDS FOR TREATING HUNTINGTON'S DISEASE” (PTC Therapeutics, Inc., priority 2020, published 2023).

Each structure is given as a SMILES string.

What is called IC50 is the concentration at which inhibition is half-maximal. A lower IC50 goes with greater potency.

One assay deals with Endogenous Huntingtin Protein. Nature of the assay: Endogenous Huntingtin Protein Assay (ELISA-based MSD electrochemiluminescence). Type of assay: cell-based. The note with it: Table 2; MSD plates coated with MW1 (expanded polyglutamine) or MAB2166 capture antibody; "inactive" = result above the detection limit of the assay. The method in brief: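 MSD electrochemiluminescence sandwich ELISA: capture with MW1 (expanded polyQ) or MAB2166 at 1 µg/mL, samples incubated overnight at 4 °C. Detection by rabbit mAb #56565 then SULFO-TAG anti-rabbit antibody, each 0.25 µg/mL for 1 h at room temperature, read in buffer T on SI 6000 imager.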
Turning to `[2H]C([2H])([2H])n1cc(-c2cc(O)c(-c3cnc(N4CCN[C@@H](C(C)(C)C)C4)nn3)cc2F)cn1` [Cpd 156, 2-{3-[(3S)-3-tert-butylpiperazin-1-yl]-1,2,4-triazin-6-yl}-4-fluoro-5-[1-(^2H3)methyl-1H-pyrazol-4-yl]phenol], the IC50 stood at 12.5 nM. In other words, the double-digit nanomolar range.

Turning to `Cc1ccc2oc(-c3ccc(-c4cnc(N5C[C@@H](C)N[C@@H](C)C5)nn4)c(O)c3)cc2n1` [Cpd 120, 2-{3-[(3R,5S)-3,5-dimethylpiperazin-1-yl]-1,2,4-triazin-6-yl}-5-(5-methylfuro[3,2-b]pyridin-2-yl)phenol], the “IC50 (nM)” value is “inactive”.

The molecule `CC(C)[C@H]1CN(c2ncc(-c3ncc(-c4cc(F)c5nn(C)cc5c4)cc3O)nn2)CCN1` [Cpd 157, 5-(7-fluoro-2-methyl-2H-indazol-5-yl)-2-{3-[(3S)-3-(propan-2-yl)piperazin-1-yl]-1,2,4-triazin-6-yl}pyridin-3-ol] had a concentration for half-maximal inhibition (IC50) of 7.8 nM.

`C[C@@H]1CN(c2ncc(-c3ccc(-n4nccn4)cc3O)nn2)C[C@H](C)N1C` [Cpd 52, 5-(2H-1,2,3-triazol-2-yl)-2-{3-[(3R,5S)-3,4,5-trimethylpiperazin-1-yl]-1,2,4-triazin-6-yl}phenol]: half-maximal inhibition (IC50) was put at 336 nM.

Molecule `[2H]C([2H])([2H])n1cc(-c2ccc(-c3cnc(N4CC5CCC(C4)N5C)nn3)c(O)c2)cn1` [Cpd 58, 2-[3-(8-methyl-3,8-diazabicyclo[3.2.1]octan-3-yl)-1,2,4-triazin-6-yl]-5-[l-(^2H3)methyl-1H-pyrazol-4-yl]phenol] had an IC50 of 678 nM.

Consider `Cc1cn2cc(-c3ccc(-c4cnc(N5CCN(C)CC5)nn4)c(O)c3)cc(F)c2n1` [Cpd 73, 5-(8-fluoro-2-methylimidazo[1,2-a]pyridin-6-yl)-2-[3-(4-methylpiperazin-1-yl)-1,2,4-triazin-6-yl]phenol], for which the IC50 came to 4.1 nM.

Molecule `Cc1nnn2cc(-c3ccc(-c4cnc(N5C[C@@H](C)N[C@@H](C)C5)nn4)c(O)c3)ccc12` [Cpd 206, 2-{3-[rac-(3R,5S)-3,5-dimethylpiperazin-1-yl]-1,2,4-triazin-6-yl}-5-(3-methyl[1,2,3]triazolo[1,5-a]pyridin-6-yl)phenol] returned an IC50 of 33.7 nM.

Regarding `Oc1cc(-c2cn[nH]c2)ccc1-c1cnc(N2CCNC3(CCCC3)C2)nn1` [Cpd 43, 2-[3-(6,9-diazaspiro[4.5]decan-9-yl)-1,2,4-triazin-6-yl]-5-(1H-pyrazol-4-yl)phenol], the midpoint of inhibition, the IC50, lay at 116 nM.

In turn, `CC(C)[C@H]1CN(c2ncc(-c3ccc(-c4cnn(C)n4)cc3O)nn2)CCN1` [Cpd 262, 5-(2-methyl-2H-1,2,3-triazol-4-yl)-2-{3-[(3S)-3-(propan-2-yl)piperazin-1-yl]-1,2,4-triazin-6-yl}phenol] returned an IC50 of 94.2 nM. This IC50 and that of the molecule before are within 1.5-fold of each other.

`C[C@@H]1CN(c2ncc(-c3ccc(-c4c[nH]nc4F)cc3O)nn2)C[C@H](C(C)(C)C)N1` [Cpd 248, 2-{3-[(3S,5R)-3-tert-butyl-5-methylpiperazin-1-yl]-1,2,4-triazin-6-yl]-5-(3-fluoro-1H-pyrazol-4-yl)phenol] returned a 50% inhibitory concentration (IC50) of 74.9 nM. The IC50 values of the last two molecules are within 1.5-fold of each other.

Turning to `Cc1cn2cc(-c3ccc(-c4cnc(N5CCN[C@@H](C(C)C)C5)nn4)c(O)c3)cc(C(F)(F)F)c2n1` [Cpd 139, 5-[2-methyl-8-(trilluoromethyl)imidazo[1,2-a]pyridin-6-yl]-2-{3-[(3S)-3-(propan-2-yl)piperazin-1-yl]-1,2,4-triazin-6-yl}phenol], the IC50 came out at 18 nM.

`CNc1ccc(-c2ccc(-c3cnc(N4CCN[C@@H](C5CC5)C4)nn3)c(O)c2)cc1` [Cpd 179, 4-{3-[(3S)-3-cyclopropylpiperazin-1-yl]-1,2,4-triazin-6-yl}-4‘-(methylamino)[1,1‘-biphenyl]-3-ol]: the IC50 was determined as 113 nM. Against the preceding molecule, the IC50 is about 6.3-fold higher.

`CC(C)[C@H]1CN(c2ncc(-c3ncc(-n4nccn4)cc3O)nn2)CCN1` [Cpd 175, 2-{3-[(3S)-3-(propan-2-yl)piperazin-1-yl]-1,2,4-triazin-6-yl}-5-(2H-1,2,3-triazol-2-yl)pyridin-3-ol] yielded a 50% inhibitory concentration (IC50) of 236 nM.

Regarding `CC(C)[C@H]1CN(c2ncc(-c3ccc(-c4ncsn4)cc3O)nn2)CCN1` [Cpd 239, 2-{3-[(3S)-3-(propan-2-yl)piperazin-1-yl]-1,2,4-triazin-6-yl}-5-(1,2,4-thiadiazol-3-yl)phenol], it took 12.4 nM to reach half-maximal inhibition (IC50).

In the case of `Oc1cc(-n2nccn2)ccc1-c1cnc(N2CCN[C@@H](C3CC3)C2)nn1` [Cpd 11, 2-{3-[(3S)-3-cyclopropylpiperazin-1-yl]-1,2,4-triazin-6-yl}-5-(2H-1,2,3-triazol-2-yl)phenol], half-maximal inhibition (IC50) required 9.6 nM.

Molecule `CCC1CN(c2ncc(-c3ccc(-c4cn[nH]c4)cc3O)nn2)CCN1` (stereo not shown) [Cpd 24, 2-[3-(3-ethylpiperazin-1-yl)-1,2,4-triazin-6-yl]-5-(1H-pyrazol-4-yl)phenol] gave an IC50 of 23.4 nM.

As for `Cn1nc2cc(-c3ccc(-c4cnc(N5CCN[C@@H](C6CC6)C5)nn4)c(O)c3)cnc2n1` [Cpd 168, 2-{3-[(3S)-3-cyclopropylpiperazin-1-yl]-1,2,4-triazin-6-yl}-5-(2-methyl-2H-[1,2,3]triazolo[4,5-b]pyridin-6-yl)phenol], the IC50 worked out at 1.7 nM.

As to `C[C@@H]1CN[C@@H](C)CN1c1ncc(-c2ccc(-c3cn[nH]c3)cc2O)nn1` (single isomer, unassigned) [Cpd 190, 2-{3-[(2R,5S)-2,5-dimethylpiperazin-1-yl]-1,2,4-triazin-6-yl}-5-(1H-pyrazol-4-yl)phenol or 2-{3-[(2S,5R)-2,5-dimethylpiperazin-1-yl]-1,2,4-triazin-6-yl}-5-(1H-pyrazol-4-yl)phenol], the IC50 turned out to be 166 nM.

Take `Oc1cc(-c2cn[nH]c2)ccc1-c1cnc(N2CCNC3(CCC3)C2)nn1` [Cpd 50, 2-[3-(5,8-diazaspiro[3.5]nonan-8-yl)-1,2,4-triazin-6-yl]-5-(1H-pyrazol-4-yl)phenol]: half-maximal inhibition (IC50) required 312 nM.

In turn, `CC(C)[C@@H]1CN(c2ncc(-c3ccc(-c4cn[nH]c4)cc3O)nn2)C[C@H](C)N1` [Cpd 216, 2-{3-[(3S,5R)-3-methyl-5-(propan-2-yl)piperazin-1-yl]-1,2,4-triazin-6-yl]-5-(1H-pyrazol-4-yl)phenol] yielded a half-inhibitory concentration (IC50) of 218 nM.

Molecule `CC1CN(c2ncc(-c3ccc(-c4cn[nH]c4)cc3O)nn2)CCN1` (stereo not shown) [Cpd 42, 2-[3-(3-methylpiperazin-1-yl)-1,2,4-triazin-6-yl]-5-(1H-pyrazol-4-yl)phenol] had an IC50 of 111 nM.

Turning to `CC[C@H]1CN(c2ncc(-c3ccc(-c4cn[nH]c4)cc3O)nn2)C[C@@H](C)N1` (racemic) [Cpd 148, 2-{3-[rac-(3S,5R)-3-ethyl-5-methylpiperazin-1-yl]-1,2,4-triazin-6-yl}-5-(1H-pyrazol-4-yl)phenol], the concentration for half-maximal inhibition (IC50) stood at 53.4 nM. Against the preceding molecule, the IC50 is about 2.1-fold lower.

Consider `Cn1cc(-c2ccc(-c3cnc(N4CCN[C@@H](C5CC5)C4)nn3)c(O)c2)cn1` [Cpd 12, 2-{3-[(3S)-3-cyclopropylpiperazin-1-yl]-1,2,4-triazin-6-yl}-5-(1-methyl-1H-pyrazol-4-yl)phenol], for which the IC50 is 10.9 nM. This IC50 is about 4.9-fold lower than that of the molecule before.

Molecule `CC(C)[C@H]1CN(c2ncc(-c3ccc(-c4cn5ncnc5cn4)cc3O)nn2)CCN1` [Cpd 128, 2-{3-[(3S)-3-(propan-2-yl)piperazin-1-yl]-1,2,4-triazin-6-yl}-5-([1,2,4]triazolo[1,5-a]pyrazin-6-yl)phenol] yielded an IC50 of 26.7 nM. Against the preceding molecule, the IC50 is about 2.4-fold higher.

Take `Cc1cnsc1-c1ccc(-c2cnc(N3CCN[C@@H](C(C)C)C3)nn2)c(O)c1` [Cpd 253, 5-(4-methyl-1,2-thiazol-5-yl)-2-{3-[(3S)-3-(propan-2-yl)piperazin-1-yl]-1,2,4-triazin-6-yl}phenol]: half-maximal inhibition (IC50) required 376 nM. This IC50 lies about 14-fold higher than the previous one.

`Cc1cn2nc(-c3ccc(-c4cnc(N5CCN(C)CC5)nn4)c(O)c3)ccc2n1` [Cpd 82, 5-(2-methylimidazo[1,2-b]pyridazin-6-yl)-2-[3-(4-methylpiperazin-1-yl)-1,2,4-triazin-6-yl]phenol] came in with a concentration for half-maximal inhibition (IC50) of 5.5 nM. This IC50 lies about 68-fold lower than the previous one.

`Cn1nnc2nc(-c3ccc(-c4cnc(N5CCN[C@@H](C6CC6)C5)nn4)c(O)c3)ccc21` [Cpd 171, 2-{3-[(3S)-3-cyclopropylpiperazin-1-yl]-1,2,4-triazin-6-yl}-5-(1-methyl-1H-[1,2,3]triazolo[4,5-b]pyridin-5-yl)phenol] had an IC50 of 14.1 nM.

Consider `C[C@@H]1CN(c2ncc(-c3ccc(-c4c[nH]nc4F)cc3O)nn2)C[C@H](C2CCC2)N1` [Cpd 236, 2-{3-[(3S,5R)-3-cyclobutyl-5-methylpiperazin-1-yl]-1,2,4-triazin-6-yl}-5-(3-fluoro-1H-pyrazol-4-yl)phenol], for which the concentration for half-maximal inhibition (IC50) worked out at 9.5 nM.

On to `Cc1cc(-c2cn[nH]c2)cc(O)c1-c1cnc(N2CCN[C@@H](C(C)C)C2)nn1` [Cpd 127, 3-methyl-2-{3-[(3S)-3-(propan-2-yl)piperazin-1-yl]-1,2,4-triazin-6-yl}-5-(1H-pyrazol-4-yl)phenol], for which the half-inhibitory concentration (IC50) came to 672 nM.

As to `COc1cc(-c2ccc(-c3cnc(N4C[C@@H](C)N[C@@H](C(C)C)C4)nn3)c(O)c2)ccn1` [Cpd 257, 5-(2-methoxypyridin-4-yl)-2-{3-[(3R,5S)-3-methyl-5-(propan-2-yl)piperazin-1-yl]-1,2,4-triazin-6-yl}phenol], the half-maximal inhibitory concentration (IC50) was 19.8 nM.

On to `COc1nnc(-c2ccc(-c3cnc(N4CCN[C@@H](C(C)C)C4)nn3)c(O)c2)s1` [Cpd 204, 5-(5-methoxy-1,3,4-thiadiazol-2-yl)-2-{3-[(3S)-3-(propan-2-yl)piperazin-1-yl]-1,2,4-triazin-6-yl}phenol], for which the IC50 was 162 nM.

Take `Cc1cn2cc(-c3ccc(-c4cnc(N5C[C@@H](C)N[C@@H](C)C5)nn4)c(O)c3)cc(C#N)c2n1` [Cpd 87, 6-(4-{3-[(3R,5S)-3,5-dimethylpiperazin-1-yl]-1,2,4-triazin-6-yl}-3-hydroxyphenyl)-2-methylimidazo[1,2-a]pyridine-8-carbonitrile]: the IC50 is 6.4 nM.

The same assay, now with this note: Table 3; selected compounds from WO/2019/191229 A1, same MSD assay.
`Oc1cc(-c2cn[nH]c2)ccc1-c1cnc(N2CCNCC2)nn1` [WO/2019/191229 A1 Cpd 328, reference compound] returned a half-inhibitory concentration (IC50) of 106 nM.

For `CC1CN(c2ncc(-c3ccc(-c4cn[nH]c4)cc3O)nn2)CC(C)N1` (stereo not shown) [WO/2019/191229 A1 Cpd 262, reference compound], the IC50 worked out at 72.8 nM. This IC50 and that of the molecule before are within 1.5-fold of each other.
